Data from publication PMC8658016, “Identification of New Compounds with Anticonvulsant and Antinociceptive Properties in a Group of 3-substituted (2,5-dioxo-pyrrolidin-1-yl)(phenyl)-Acetamides” (International Journal of Molecular Sciences, 2021).

Tests used:
[1] = tested on: rats; experiment: Carrageenan-induced thermal hyperalgesia (radiant heat); type: in vivo, rat; conditions: 80 mg/kg
Excerpt: (§1) To test the anti-inflammatory activity and the potential to attenuate inflammatory pain, we tested compound 14 in the model of carrageenan-induced aseptic inflammation. In this model, the subplantar injection of carrageenan induced an edema, mechanical, and thermal hyperalgesia. […] In our opinion, the most surprising and interesting was the long-lasting anti-edematous effect. It may result from the pharmacokinetic properties of compound 14, but also from its unique mechanism. Since inflammation is one of the critical components of neuropathy, the anti-inflammatory activity of compound 14 may be a valuable and distinctive property from classical ASDs used to treat neuropathic pain [33]. […] The pain threshold reached 87.3%, 90.9%, and 89.7% of its initial value 3, 6, and 24 h after carrageenan injection, respectively. […] The initial latency for compound 14-treated animals was 8.95 ± 0.4 s. The administration of compound 14 changed the values to 127.0%, 102.0%, 79.8%, 83.8%, and 164.4% of the initial value 1, 2, 3, 6-, and 24-h following carrageenan injection, respectively.
(§2) The experiments were conducted on adult male Albino Swiss mice (CD-1, 18–25 g) and male Wistar rats (Krf:(WI) WU), 180–250 g) as described previously. The minimum number of animals used needed to obtain definite and normally distributed results with the utilized test. Behavioral measures were scored by trained observers, which were blind to experimental conditions. The following devices were used in the experiments: Analgesy Meter (37215, Ugo Basile), Plantar Test Apparatus (EFV5, Commat Ltd., Turkey), Plethysmometer (Plethysmometer 7140, Ugo Basile), Electronic von Frey unit (BIOSEB, France). All procedures were performed according to the European Union Directive of 22 September 2010 (2010/63/EU) and approved by the Local Ethics Committee for Experiments on Animals in Krakow, Poland (resolution no. 105/2016).
Figure 8 Effect of compound 14 on carrageenan-induced oedema (A), mechanical hyperalgesia (B), and thermal hyperalgesia (C), developed after subplantar injection of 1% carrageenan in rats. Data are expressed as means ± S.E.M. for 6 animals; 0—the initial value considered as the paw volume (A) or nociceptive reaction (B,C) before carrageenan administration. Statistical significance compared to vehicle-treated animals (control): * p < 0.05, ** p < 0.01, *** p < 0.001, **** p < 0.0001. Statistical analysis: two-way ANOVA post hoc Bonferroni test. Statistical significance in different time points of control group: ^# p < 0.05, ^## p < 0.01, ^### p < 0.001. Statistical analysis: one-way ANOVA, followed by Dunnett’s multiple comparison test (GraphPad Prism 8.0.1).

[2] = molecular target: Cav1.2 (h) calcium ion channel (Homo sapiens, UniProt Q13936); experiment: Cav1.2 calcium ion channel cell based antagonist calcium flux assay; conditions: HEK293, read-out: % Inhibition of Control Agonist Response, Cav1.2 (h) calcium ion channel cell based antagonist calcium flux assay
Cav1.2 (h) calcium ion channel, sequence (Q13936 whole entry): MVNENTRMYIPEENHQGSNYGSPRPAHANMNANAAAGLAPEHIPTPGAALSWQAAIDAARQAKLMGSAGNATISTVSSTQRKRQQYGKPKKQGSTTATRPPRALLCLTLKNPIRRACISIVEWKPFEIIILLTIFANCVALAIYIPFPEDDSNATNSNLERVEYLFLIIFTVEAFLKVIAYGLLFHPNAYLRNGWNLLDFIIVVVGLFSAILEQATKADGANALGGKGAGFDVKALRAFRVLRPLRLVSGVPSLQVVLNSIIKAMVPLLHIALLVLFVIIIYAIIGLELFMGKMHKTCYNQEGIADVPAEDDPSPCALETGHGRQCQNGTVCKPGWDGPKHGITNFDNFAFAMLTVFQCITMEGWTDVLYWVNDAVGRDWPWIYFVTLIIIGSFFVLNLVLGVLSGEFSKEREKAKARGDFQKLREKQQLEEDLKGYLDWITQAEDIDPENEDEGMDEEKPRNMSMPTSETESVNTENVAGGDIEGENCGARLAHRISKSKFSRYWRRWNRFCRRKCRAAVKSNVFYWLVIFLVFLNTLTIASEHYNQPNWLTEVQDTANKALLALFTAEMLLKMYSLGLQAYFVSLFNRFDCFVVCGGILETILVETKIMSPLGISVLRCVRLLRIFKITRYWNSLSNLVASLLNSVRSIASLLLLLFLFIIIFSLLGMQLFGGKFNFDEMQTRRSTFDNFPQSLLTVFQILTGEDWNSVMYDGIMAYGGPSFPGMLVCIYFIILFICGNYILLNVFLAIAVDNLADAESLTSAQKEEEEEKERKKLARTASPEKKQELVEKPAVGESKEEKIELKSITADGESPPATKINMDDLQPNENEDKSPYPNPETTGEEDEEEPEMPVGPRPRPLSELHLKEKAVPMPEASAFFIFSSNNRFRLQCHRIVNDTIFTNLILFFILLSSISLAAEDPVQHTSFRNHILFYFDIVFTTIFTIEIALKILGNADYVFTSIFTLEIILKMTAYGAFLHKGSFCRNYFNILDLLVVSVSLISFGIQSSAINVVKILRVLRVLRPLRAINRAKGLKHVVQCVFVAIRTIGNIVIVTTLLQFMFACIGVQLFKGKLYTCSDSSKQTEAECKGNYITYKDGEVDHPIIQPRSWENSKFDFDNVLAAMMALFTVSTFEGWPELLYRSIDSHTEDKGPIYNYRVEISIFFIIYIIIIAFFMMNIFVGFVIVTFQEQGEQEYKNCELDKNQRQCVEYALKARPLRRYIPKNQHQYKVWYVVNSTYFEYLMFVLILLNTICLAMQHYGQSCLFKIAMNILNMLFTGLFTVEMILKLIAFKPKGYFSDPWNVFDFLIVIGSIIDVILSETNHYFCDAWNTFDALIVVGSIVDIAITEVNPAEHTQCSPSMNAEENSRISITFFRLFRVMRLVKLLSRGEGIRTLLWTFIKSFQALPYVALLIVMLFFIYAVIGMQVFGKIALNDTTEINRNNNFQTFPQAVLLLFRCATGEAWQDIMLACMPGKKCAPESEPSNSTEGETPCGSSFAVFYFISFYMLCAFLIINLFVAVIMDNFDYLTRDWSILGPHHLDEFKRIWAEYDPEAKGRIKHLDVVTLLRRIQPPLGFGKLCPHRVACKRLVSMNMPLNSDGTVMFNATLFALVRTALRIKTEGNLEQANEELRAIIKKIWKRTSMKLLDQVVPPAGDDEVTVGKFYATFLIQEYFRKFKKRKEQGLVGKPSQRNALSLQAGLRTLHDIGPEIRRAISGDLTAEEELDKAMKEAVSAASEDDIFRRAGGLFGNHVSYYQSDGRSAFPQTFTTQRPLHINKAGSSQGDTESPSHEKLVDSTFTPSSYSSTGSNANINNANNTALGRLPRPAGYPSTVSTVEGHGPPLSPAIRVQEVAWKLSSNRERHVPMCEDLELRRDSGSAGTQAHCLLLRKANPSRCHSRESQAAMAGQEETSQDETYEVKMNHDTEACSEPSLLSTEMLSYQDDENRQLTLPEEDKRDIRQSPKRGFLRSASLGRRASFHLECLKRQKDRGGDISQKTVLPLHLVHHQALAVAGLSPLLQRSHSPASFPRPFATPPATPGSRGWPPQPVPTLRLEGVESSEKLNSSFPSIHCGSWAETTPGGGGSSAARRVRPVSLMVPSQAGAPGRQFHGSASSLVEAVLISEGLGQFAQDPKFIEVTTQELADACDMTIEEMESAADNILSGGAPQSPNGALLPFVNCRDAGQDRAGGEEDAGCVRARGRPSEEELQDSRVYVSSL
Cav1.2 (h) calcium ion channel, sequence (Q08289 whole entry partner): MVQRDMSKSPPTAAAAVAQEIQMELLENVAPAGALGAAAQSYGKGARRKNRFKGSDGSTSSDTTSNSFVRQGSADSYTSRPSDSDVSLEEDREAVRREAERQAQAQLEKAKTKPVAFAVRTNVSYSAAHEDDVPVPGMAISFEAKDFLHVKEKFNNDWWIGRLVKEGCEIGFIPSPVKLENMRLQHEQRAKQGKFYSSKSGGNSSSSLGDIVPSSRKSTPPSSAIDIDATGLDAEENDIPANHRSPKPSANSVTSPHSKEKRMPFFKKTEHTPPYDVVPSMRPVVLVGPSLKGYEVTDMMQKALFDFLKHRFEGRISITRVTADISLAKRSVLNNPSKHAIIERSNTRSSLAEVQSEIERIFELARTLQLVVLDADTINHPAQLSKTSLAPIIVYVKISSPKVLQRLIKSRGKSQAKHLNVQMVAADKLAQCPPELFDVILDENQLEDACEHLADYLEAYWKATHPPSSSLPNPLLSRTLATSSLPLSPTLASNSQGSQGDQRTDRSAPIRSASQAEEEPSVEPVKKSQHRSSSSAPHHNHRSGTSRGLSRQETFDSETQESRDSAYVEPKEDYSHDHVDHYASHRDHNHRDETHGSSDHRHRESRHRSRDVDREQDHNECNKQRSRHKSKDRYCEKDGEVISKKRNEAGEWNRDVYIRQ
Cav1.2 (h) calcium ion channel, sequence (P54289 25-956 partner limits assumed): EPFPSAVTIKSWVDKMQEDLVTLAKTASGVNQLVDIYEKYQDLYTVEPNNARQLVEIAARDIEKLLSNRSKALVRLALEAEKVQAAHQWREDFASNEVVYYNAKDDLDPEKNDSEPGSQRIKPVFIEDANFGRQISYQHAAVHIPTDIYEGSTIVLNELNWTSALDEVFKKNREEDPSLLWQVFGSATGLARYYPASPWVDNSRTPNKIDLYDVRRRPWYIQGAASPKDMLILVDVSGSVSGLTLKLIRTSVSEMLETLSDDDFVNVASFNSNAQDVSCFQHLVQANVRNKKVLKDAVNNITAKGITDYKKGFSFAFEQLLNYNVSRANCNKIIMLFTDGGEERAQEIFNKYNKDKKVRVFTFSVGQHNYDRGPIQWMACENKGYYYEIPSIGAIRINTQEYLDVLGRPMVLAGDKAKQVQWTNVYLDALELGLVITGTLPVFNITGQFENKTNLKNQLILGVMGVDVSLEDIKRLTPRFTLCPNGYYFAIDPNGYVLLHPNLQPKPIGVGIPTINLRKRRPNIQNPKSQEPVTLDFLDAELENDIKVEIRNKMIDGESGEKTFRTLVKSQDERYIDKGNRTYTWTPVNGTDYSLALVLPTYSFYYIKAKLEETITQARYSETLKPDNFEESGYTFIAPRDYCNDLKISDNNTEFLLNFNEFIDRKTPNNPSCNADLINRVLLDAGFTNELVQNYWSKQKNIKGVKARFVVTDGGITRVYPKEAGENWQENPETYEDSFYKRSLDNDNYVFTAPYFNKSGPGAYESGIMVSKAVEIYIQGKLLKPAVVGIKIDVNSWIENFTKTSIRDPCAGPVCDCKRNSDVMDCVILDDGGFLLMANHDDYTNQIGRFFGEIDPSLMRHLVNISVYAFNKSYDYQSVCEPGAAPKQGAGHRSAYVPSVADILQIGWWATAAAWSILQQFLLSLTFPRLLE
Cav1.2 (h) calcium ion channel, sequence (P54289 957-1103 partner limits assumed): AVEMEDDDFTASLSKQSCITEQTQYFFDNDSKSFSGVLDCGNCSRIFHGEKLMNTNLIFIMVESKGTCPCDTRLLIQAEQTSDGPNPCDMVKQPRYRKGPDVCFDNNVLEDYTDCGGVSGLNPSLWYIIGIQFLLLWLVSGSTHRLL

[3] = tested on: rats; experiment: Carrageenan-induced mechanical hyperalgesia; type: in vivo, rat; conditions: 80 mg/kg
Excerpt: as §1
as §2, with “All procedures were performed according to the European Union Directive of 22 September 2010 (2010/63/EU) and approved by the Local Ethics Committee for Experiments on Animals in Krakow, Poland (resolution no. 105/2016).” left out
Figure 8 Effect of compound 14 on carrageenan-induced oedema (A), mechanical hyperalgesia (B), and thermal hyperalgesia (C), developed after subplantar injection of 1% carrageenan in rats. Data are expressed as means ± S.E.M. for 6 animals; 0—the initial value considered as the paw volume (A) or nociceptive reaction (B,C) before carrageenan administration. […]

CN(C)C1CC(=O)N(C(C(=O)N2CCN(c3cccc(C(F)(F)F)c3)CC2)c2ccccc2)C1=O.Cl (stereo not drawn) [Compound 14, 3-(Dimethylamino)-1-(2-oxo-1-phenyl-2-(4-(3-(trifluoromethyl)phenyl)-piperazin-1-yl)ethyl)pyrrolidine-2,5-dione hydrochloride]
latency of nociceptive response to radiant heat, % of the initial value ([1]; 1 h after carrageenan): 127.0%
latency of nociceptive response to radiant heat, % of the initial value ([1]; 2 h after carrageenan): 102.0%
latency of nociceptive response to radiant heat, % of the initial value ([1]; 3 h after carrageenan): 79.8%
latency of nociceptive response to radiant heat, % of the initial value ([1]; 6 h after carrageenan): 83.8%
latency of nociceptive response to radiant heat, % of the initial value ([1]; 24 h after carrageenan): 164.4%
inhibition at 10 µM [2]: 29%
withdrawal threshold, % of the initial reaction (mechanical hyperalgesia) ([3]; 3 h after carrageenan): 113.3%
withdrawal threshold, % of the initial reaction (mechanical hyperalgesia) ([3]; 6 h after carrageenan): 110.1%
withdrawal threshold, % of the initial reaction (mechanical hyperalgesia) ([3]; 24 h after carrageenan): 111.4%
